Data: PubChem BioAssay AID1963964 (Molecular Pharmacology Branch, DTP, NCI, 2024)

Tested on: 997726-040-R-J2-PDC tumor spheroids, viability
Assay: Anticancer human tumor 997726-040-R-J2-PDC patient-derived squamous cell lung carcinoma cell line growth inhibition [PI3K]
Conditions: spheroids with HUVEC and MSC; for IC50: curve of first compound; for viability, T/C: stronger effect = lower value
Summary of the method: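 Tumor cells grown as multi-cell spheroids with HUVEC endothelial cells and MSC fibroblast-like stroma were treated with targeted agents combined with inavolisib, alpelisib, duvelisib or copanlisib. Doses fell in half-log steps from near clinical Cmax, else from 10 microM. Viability was measured.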
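Note: spheroids exposed to compounds for seven days before readout.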

Compound: Cn1cnc2c(F)c(Nc3ccc(Br)cc3Cl)c(C(=O)NOCCO)cc21 + Cc1nc(NC(=O)N2CCCC2C(N)=O)sc1-c1ccnc(C(C)(C)C(F)(F)F)c1
- IC50 (second compound 0.0316 µM): 129 nM
- IC50 (second compound 0.1 µM): 66.2 nM
- IC50 (second compound 0.316 µM): < 9.49 nM
- IC50 (second compound 1 µM): < 9.49 nM
- IC50 (second compound 3.16 µM): < 9.49 nM
- IC50 (second compound 10 µM): < 9.49 nM
- viability, T/C (second compound 0.0316 µM, first compound 0.00949 µM): 74.8%
- viability, T/C (second compound 0.0316 µM, first compound 0.03 µM): 58.5%
- viability, T/C (second compound 0.0316 µM, first compound 0.0949 µM): 53.5%
- viability, T/C (second compound 0.0316 µM, first compound 0.3 µM): 41.7%
- viability, T/C (second compound 0.0316 µM, first compound 0.949 µM): 45.9%
- viability, T/C (second compound 0.0316 µM, first compound 3 µM): 34.1%
- viability, T/C (second compound 0.1 µM, first compound 0.00949 µM): 67.6%
- viability, T/C (second compound 0.1 µM, first compound 0.03 µM): 56.1%
- viability, T/C (second compound 0.1 µM, first compound 0.0949 µM): 44.9%
- viability, T/C (second compound 0.1 µM, first compound 0.3 µM): 40.5%
- viability, T/C (second compound 0.1 µM, first compound 0.949 µM): 38.7%
- viability, T/C (second compound 0.1 µM, first compound 3 µM): 28.5%
- viability, T/C (second compound 0.316 µM, first compound 0.00949 µM): 51.1%
- viability, T/C (second compound 0.316 µM, first compound 0.03 µM): 40.6%
- viability, T/C (second compound 0.316 µM, first compound 0.0949 µM): 35.7%
- viability, T/C (second compound 0.316 µM, first compound 0.3 µM): 34.3%
- viability, T/C (second compound 0.316 µM, first compound 0.949 µM): 28.4%
- viability, T/C (second compound 0.316 µM, first compound 3 µM): 22.2%
- viability, T/C (second compound 1 µM, first compound 0.00949 µM): 36.7%
- viability, T/C (second compound 1 µM, first compound 0.03 µM): 32.6%
- viability, T/C (second compound 1 µM, first compound 0.0949 µM): 29.4%
- viability, T/C (second compound 1 µM, first compound 0.3 µM): 25.3%
- viability, T/C (second compound 1 µM, first compound 0.949 µM): 22.7%
- viability, T/C (second compound 1 µM, first compound 3 µM): 21.2%
- viability, T/C (second compound 3.16 µM, first compound 0.00949 µM): 24.8%
- viability, T/C (second compound 3.16 µM, first compound 0.03 µM): 21.2%
- viability, T/C (second compound 3.16 µM, first compound 0.0949 µM): 22.2%
- viability, T/C (second compound 3.16 µM, first compound 0.3 µM): 20.9%
- viability, T/C (second compound 3.16 µM, first compound 0.949 µM): 20.7%
- viability, T/C (second compound 3.16 µM, first compound 3 µM): 14.3%
- viability, T/C (second compound 10 µM, first compound 0.00949 µM): 17.8%
- viability, T/C (second compound 10 µM, first compound 0.03 µM): 17.2%
- viability, T/C (second compound 10 µM, first compound 0.0949 µM): 15.5%
- viability, T/C (second compound 10 µM, first compound 0.3 µM): 15.3%
- viability, T/C (second compound 10 µM, first compound 0.949 µM): 12.2%
- viability, T/C (second compound 10 µM, first compound 3 µM): 7.26%

Compound: CNC(=O)c1ccc(N2C(=S)N(c3ccc(C#N)c(C(F)(F)F)c3)C(=O)C2(C)C)cc1F + COc1c(OCCCN2CCOCC2)ccc2c3n(c(=NC(=O)c4cnc(N)nc4)nc12)CCN3
- IC50 (second compound 0.00316 µM): > 10000 nM
- IC50 (second compound 0.01 µM): > 10000 nM
- IC50 (second compound 0.0316 µM): < 31.6 nM
- IC50 (second compound 0.1 µM): < 31.6 nM
- IC50 (second compound 0.316 µM): < 31.6 nM
- IC50 (second compound 1 µM): < 31.6 nM
- viability, T/C (second compound 0.00316 µM, first compound 0.0316 µM): 73.4%
- viability, T/C (second compound 0.00316 µM, first compound 0.1 µM): 81.8%
- viability, T/C (second compound 0.00316 µM, first compound 0.316 µM): 70.3%
- viability, T/C (second compound 0.00316 µM, first compound 1 µM): 76.1%
- viability, T/C (second compound 0.00316 µM, first compound 3.16 µM): 77.7%
- viability, T/C (second compound 0.00316 µM, first compound 10 µM): 68.2%
- viability, T/C (second compound 0.01 µM, first compound 0.0316 µM): 66.2%
- viability, T/C (second compound 0.01 µM, first compound 0.1 µM): 61.2%
- viability, T/C (second compound 0.01 µM, first compound 0.316 µM): 54.8%
- viability, T/C (second compound 0.01 µM, first compound 1 µM): 54.8%
- viability, T/C (second compound 0.01 µM, first compound 3.16 µM): 56.4%
- viability, T/C (second compound 0.01 µM, first compound 10 µM): 50%
- viability, T/C (second compound 0.0316 µM, first compound 0.0316 µM): 38.2%
- viability, T/C (second compound 0.0316 µM, first compound 0.1 µM): 40.2%
- viability, T/C (second compound 0.0316 µM, first compound 0.316 µM): 35.9%
- viability, T/C (second compound 0.0316 µM, first compound 1 µM): 36.6%
- viability, T/C (second compound 0.0316 µM, first compound 3.16 µM): 31.1%
- viability, T/C (second compound 0.0316 µM, first compound 10 µM): 30.9%
- viability, T/C (second compound 0.1 µM, first compound 0.0316 µM): 24.3%
- viability, T/C (second compound 0.1 µM, first compound 0.1 µM): 27.4%
- viability, T/C (second compound 0.1 µM, first compound 0.316 µM): 21.6%
- viability, T/C (second compound 0.1 µM, first compound 1 µM): 24.9%
- viability, T/C (second compound 0.1 µM, first compound 3.16 µM): 20.5%
- viability, T/C (second compound 0.1 µM, first compound 10 µM): 22.4%
- viability, T/C (second compound 0.316 µM, first compound 0.0316 µM): 5.92%
- viability, T/C (second compound 0.316 µM, first compound 0.1 µM): 6.55%
- viability, T/C (second compound 0.316 µM, first compound 0.316 µM): 5.84%
- viability, T/C (second compound 0.316 µM, first compound 1 µM): 6.05%
- viability, T/C (second compound 0.316 µM, first compound 3.16 µM): 6.82%
- viability, T/C (second compound 0.316 µM, first compound 10 µM): 4.31%
- viability, T/C (second compound 1 µM, first compound 0.0316 µM): 1.55%
- viability, T/C (second compound 1 µM, first compound 0.1 µM): 1.44%
- viability, T/C (second compound 1 µM, first compound 0.316 µM): 1.25%
- viability, T/C (second compound 1 µM, first compound 1 µM): 1.13%
- viability, T/C (second compound 1 µM, first compound 3.16 µM): 1.39%
- viability, T/C (second compound 1 µM, first compound 10 µM): 1.47%
